# Source: US20150282486A1, “RICE SEED TREATMENT COMPOSITION” (SYNGENTA PARTICIPATIONS AG, priority 2014, published 2015)
# Key:
# rice seed variety CL 151 [1] = assay: Greenhouse trial of zinc-treated rice seed in Zn deficient soil mix: germination rate; format: in vivo; details: plus insecticide/fungicide mixture, Zn deficient potting mix 1.97 ppm Zn
# Source text: (§1) For the inventive composition, ZnEDTA (in the form of Dissolvine E-Zn-15 having 3% free zinc, Akzo Nobel, IL., USA) was applied as a 20% w/w aqueous solution at rates of 1.18 1.47 and 1.76 g ZnEDTA/kg seed. This was accomplished by using 8, 10 or 12 fl oz per cwt.
# (§2) For the first comparative composition, ZnSO4 was applied as a 24.7% solution at a rate of 1.90 g ZnSO4/kg seed (in the form of ZINC PLUS having 10% free zinc, DeltAg, MS, USA). This was accomplished by using 10 fl oz per cwt.
# (§3) For the second comparative composition, ZnO was applied as a 32.50% aqueous suspension at a rate of 2.00 g ZnO/kg seed (in the form of ZINCHE ST having 26% free zinc, Drexel Chemical Co, TN, USA). This was accomplished by using 8 fl oz per cwt.
# (§4) This was done by preparing a mixture of each zinc-containing compound with the insecticide/fungicide mixture and adding water to make a total of 25 fl oz per ctw (thiamethoxam at 1.80 g/kg seed, fludioxonil at 0.015 g/kg seed, azoxystrobin at 0.07 g/kg seed, metalaxyl-M at 0.09 g/kg seed and sedaxane at 0.01 g/kg seed; commercial products available as e.g. CRUISER MAXX and VIBRANCE, both Syngenta Crop Protection, NC, USA). Also evaluated were untreated control and seeds having only the conventional insecticide and fungicide treatment.
# (§5) For all test groups, one (1) kg batches of rice seed variety CL 151 (Clearfield Seed, Horizon Ag, TN, USA) were treated on a Hege seed treater (Wintersteiger AG, Austria) using a standard protocol. The seeds were allowed to dry.
# Standard commercial greenhouse containers, 10 cm diameter by 9 cm deep, were filled with 350 cc of a rooting media mix consisting of 33% (v/v) Zn deficient soil collected in Arkansas, USA and then sterilized in an autoclave and 66% (v/v) commercial planting mix (NB peat, Fafard, MA, USA). Analysis of the potting mix confirmed that the zinc levels were low, at 1.97 ppm and pH levels were <7. […]
# Ten days after planting (10 DAP) a drip irrigation emitter was installed on each pot. […] Germination rates were recorded and at 11 DAP rice seedlings were thinned to 5 plants per pot. […]
# rice seed variety CL 151 [2] = assay: Greenhouse trial of zinc-treated rice seed in Zn deficient soil mix: total zinc uptake in dry above ground plant tissue; format: in vivo; details: dry above ground tissue harvested 29 DAP, plus insecticide/fungicide mixture
# Source text: as §1, §2, §3, §4, §5
# Standard commercial greenhouse containers, 10 cm diameter by 9 cm deep, were filled with 350 cc of a rooting media mix consisting of 33% (v/v) Zn deficient soil collected in Arkansas, USA and then sterilized in an autoclave and 66% (v/v) commercial planting mix (NB peat, Fafard, MA, USA). Analysis of the potting mix confirmed that the zinc levels were low, at 1.97 ppm and pH levels were <7.
# Prior to planting the soil was moistened with 200 ml tap water per pot. Eight seeds were sown per pot by placing them on soil surface then lightly covering with 0.5 cm of loose peat. […] Pots were transferred to greenhouse and maintained at 30/24° C. day/night temperature with 16 hours of supplemental high pressure sodium light. All pots were lightly watered manually every 2 to 3 days to prevent dehydration of the germination zone.
# Ten days after planting (10 DAP) a drip irrigation emitter was installed on each pot. The irrigation system was set to deliver 100 ml of tap water each morning and again each evening. Germination rates were recorded and at 11 DAP rice seedlings were thinned to 5 plants per pot. By 17 DAP rice plants were in the V3 growth stage. At 18 DAP nitrogen fertilizer (urea) was added to the irrigation water at 200 ppm for the duration of trial. At 22 DAP rice plants were in the V4 growth stage with first tiller forming.
# At 29 DAP rice plants were in the V5 growth stage with 3 tillers. The above ground plant tissue was harvested and placed in paper bags. Bags were placed in an oven set at 100° C. for 72 hours to dry. The dry tissue was removed from the bags and weighed. Samples of the dry tissue were analyzed for total zinc uptake (MicroMacro International, Inc. Labs, GA, USA).
# rice seed = details: 1.4 g ZnEDTA/kg rice seed; cited from earlier work
smiles,measurement,setting,value
"O=C(O)CN(CCN(CC(=O)O)CC(=O)O)CC(=O)O.[Zn] [ZnEDTA, zinc ethylenediaminetetraacetic acid]",Germination rate (%),rice seed variety CL 151 [1]; 1.47 g Zn complex/kg seed,45%
same,Zinc uptake (ppm),rice seed variety CL 151 [2]; 1.18 g Zn complex/kg seed,275.47 ppm
same,Zinc uptake (ppm),rice seed variety CL 151 [2]; 1.47 g Zn complex/kg seed,304.74 ppm
same,Zinc uptake (ppm),rice seed variety CL 151 [2]; 1.76 g Zn complex/kg seed,316.00 ppm
same,Outcome of rice seed treatment,rice seed,not successful
"[O]=[Zn] [ZnO, Zinc oxide, reference compound]",Germination rate (%),rice seed variety CL 151 [1]; 2.00 g Zn complex/kg seed,42%
same,Zinc uptake (ppm),rice seed variety CL 151 [2]; 2.00 g Zn complex/kg seed,253.65 ppm
"O=S(=O)([O-])[O-].[Zn+2] [ZnSO4, Zinc sulfate, reference compound]",Germination rate (%),rice seed variety CL 151 [1]; 1.90 g Zn complex/kg seed,43%
same,Zinc uptake (ppm),rice seed variety CL 151 [2]; 1.90 g Zn complex/kg seed,237.50 ppm
